From patent US9624161B2 (priority 2009, dated 2017)

Assays:
[1] = system: healthy young male volunteers; experiment: Study 1: 56 day proof of concept study in healthy young male volunteers (600, 1000, 1500 mg); assay type: in vivo, human; settings: for BSAP change / FSH change / Free testosterone change / Osteocalcin change / SHBG change / Total testosterone change / serum PSA change: castrated subjects
Procedure: A 56 day, proof of concept study of Compound IV was conducted in healthy young male volunteers. (Table 22 and Table 23 below). […] The free testosterone levels were reduced to levels below the levels expected from surgical castration or those expected from chemical castration with LHRH agonists or antagonists. This is due to a dose dependent increase in sex hormone binding globulin (SHBG) that is observed with Compound IV.

[2] = Oral bioavailability in dogs; assay type: in vivo; settings: dog, plasma, depending on the formulation and route of administration
Procedure: Formulations using polyethylene glycol 300 (PEG300) generally produced higher exposures than microemulsions prepared in Tween 80 diluted in deionized water. […] Importantly, in dogs the exposure in the male 30 mg/kg PEG300 oral dose group exceeded the exposure necessary to produce the maximal effect on prostate reduction in the rat model of LH suppression.

liver X receptor (LXR) = experiment: Nuclear receptor cross-reactivity transcriptional activation assay; assay type: cell-based, human; settings: agonist and antagonist modes
Description: Compound IV was screened for cross-reactivity against rat isoforms of glucocorticoid receptor (GR), mineralocorticoids receptor (MR), progesterone receptor (PR), androgen receptor (AR) and human isoforms of farnesoid X receptor (FXR), liver X receptor (LXR), peroxisome proliferator-activated receptors (PPAR-α and PPAR-γ), and retinoid X receptor (RXR-α) in both agonist and antagonist modes in transcriptional activation assays.

[3] = 600 mg, sufficiently compliant subjects
[4] = 1000 mg, sufficiently compliant subjects
[5] = 1500 mg, sufficiently compliant subjects

With `O=C(c1ccc(O)c(F)c1)N(c1ccc(O)cc1)c1ccc(F)cc1` [Compound IV, 3-fluoro-N-(4-fluorophenyl)-4-hydroxy-N-(4-hydroxyphenyl)benzamide] the “% subjects castrated” value [1, 3] was 0% ^, the “BSAP % change from baseline to final observation” value (shortened to “BSAP % change from baseline”) [1, 3] was −18.7 ± 18.8% and the “FSH % change from baseline to final observation” value (shortened to “FSH % change from baseline”) [1, 3] was −48.4 ± 53.9%. For the same compound, the “Free testosterone % change from baseline to final observation” value (from here on “Free testosterone % change from baseline”) [1, 3] was −32.9 ± 43.2%, the “Osteocalcin % change from baseline to final observation” value (shortened to “Osteocalcin % change from baseline”) [1, 3] was −32.8 ± 11.1% and the “SHBG % change from baseline to final observation” value (from here on “SHBG % change from baseline”) [1, 3] was “+363 ± 139%”. For the same compound, the “Total testosterone % change from baseline to final observation” value (from here on “Total testosterone % change”) [1, 3] was “+22.1 ± 51.9%”, the “serum PSA % change from baseline to final observation” value (from here on “serum PSA % change from baseline”) [1, 3] was −43.8 ± 21.1% and the BSAP change ([1]; 1000 mg) was 6.0 ± 29%. It also gave an FSH change ([1]; 1000 mg) of −91 ± 5.2%, a Free testosterone change ([1]; 1000 mg) of −98.2 ± 0.146% and an Osteocalcin change ([1]; 1000 mg) of −20 ± 15%. The SHBG change ([1]; 1000 mg) was 471 ± 102%, the Total testosterone change ([1]; 1000 mg) was −94.7 ± 0.228% and the “serum PSA change” value ([1]; 1000 mg) was −52 ± 28%. The “% subjects castrated” value [1, 4] was 75% ^, the “BSAP % change from baseline” value [1, 4] was −5.97 ± 31.6% and the “FSH % change from baseline” value [1, 4] was −78.4 ± 29.4%. The “Free testosterone % change from baseline” value [1, 4] was −86.4 ± 26.4%, the “Osteocalcin % change from baseline” value [1, 4] was −21.4 ± 14.4% and the “SHBG % change from baseline” value [1, 4] was “+446 ± 130%”. The “Total testosterone % change” value [1, 4] was −63.0 ± 59.9%, the “serum PSA % change from baseline” value [1, 4] was −42.8 ± 30.2% and the “Subjects that reached castrate levels of total testosterone” value ([1]; 1500 mg dose group, by Day 28, sufficiently compliant subjects) was 90%. It also gave a BSAP change ([1]; 1500 mg) of −19 ± 21%, an FSH change ([1]; 1500 mg) of −88 ± 4.8% and a Free testosterone change ([1]; 1500 mg) of −97.7 ± 0.155%. It also gave an Osteocalcin change ([1]; 1500 mg) of −23 ± 17%, an SHBG change ([1]; 1500 mg) of 524 ± 212% and a Total testosterone change ([1]; 1500 mg) of −92.8 ± 0.65%. For the same compound, the “serum PSA change” value ([1]; 1500 mg) was −43 ± 24%, the “% subjects castrated” value [1, 5] was 92% ^ and the “BSAP % change from baseline” value [1, 5] was −21.1 ± 17.0%. The “FSH % change from baseline” value [1, 5] was −89.7 ± 5.07%, the “Free testosterone % change from baseline” value [1, 5] was −97.5 ± 1.64% and the “Osteocalcin % change from baseline” value [1, 5] was −18.2 ± 18.7%. The “SHBG % change from baseline” value [1, 5] was “+591 ± 258%”, the “Total testosterone % change” value [1, 5] was −90.6 ± 9.67% and the “serum PSA % change from baseline” value [1, 5] was −48.1 ± 17.0%. For the same compound, the “SHBG increase over baseline” value ([1]; each dose arm (600, 1000, 1500 mg), Study 1) was 300-600%, the bioavailability [2] was 3 to 12% and the “Agonist or antagonist activity at LXR” value (liver X receptor (LXR)) was “did not display any agonist or antagonist activity”.
